# In patent US20020147145A1, “Materials and methods relating to the degradation of Cdc25A in response to DNA damage” (priority 2000, published 2002):
# “Also recorded” adds a separate entry of the source. Non-standard residues stand in square brackets, D forms with d. Residues, ends and D or L forms follow the SMILES beside them. Nle = CCCC[C@H](N)C(=O)O
# Columns and labels:
# Cdc25A [1] = assay: Cdc25A protein level and turnover by immunoblotting in UV-irradiated U-2-OS cells; format: cell-based, human; design: UV-induced degradation of the endogenous Cdc25A protein: dose or concentration left out as unconfirmed
# Cdc25A [2] = assay: Cdc25A phosphatase activity assay (activation of cyclin B1/Cdc2) on lysates of UV-irradiated U-2-OS cells; format: cell-based, human; design: Cdc25A-associated phosphatase activity after UV: dose or concentration left out as unconfirmed
# Chk1 = Chk1 (Homo sapiens, UniProt O14757); conditions: UCN-01 1 μM added into the kinase reaction; Chk1 immunoprecipitated from U-2-OS lysates
# Sequence of Chk1 (O14757 whole entry): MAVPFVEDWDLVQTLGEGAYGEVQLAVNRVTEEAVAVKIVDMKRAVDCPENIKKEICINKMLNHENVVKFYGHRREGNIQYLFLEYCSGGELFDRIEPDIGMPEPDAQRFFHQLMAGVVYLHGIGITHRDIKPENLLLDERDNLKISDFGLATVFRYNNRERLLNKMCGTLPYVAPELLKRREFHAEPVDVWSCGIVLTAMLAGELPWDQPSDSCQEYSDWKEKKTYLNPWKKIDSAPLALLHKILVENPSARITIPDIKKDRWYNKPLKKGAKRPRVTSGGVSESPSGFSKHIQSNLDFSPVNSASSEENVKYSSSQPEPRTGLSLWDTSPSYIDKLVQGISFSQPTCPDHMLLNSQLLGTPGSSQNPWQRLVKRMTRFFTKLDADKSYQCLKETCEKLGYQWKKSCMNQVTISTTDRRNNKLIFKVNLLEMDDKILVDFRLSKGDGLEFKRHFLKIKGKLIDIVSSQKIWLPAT
# Procedure: (§1) FIG. 3. […] Asynchronous SAOS-2 cells were irradiated with UV (15 J/m^2) or left untreated. Cells were harvested 2 hours later and lysates were subjected to immunoblotting and phosphatase activity measurements. […] After an additional 2 hours, cells were lysed and analyzed for levels and complexes of HACdc25A and Chk1 as indicated. […] Chk1 was immunoprecipitated from lysates of U-2-OS cells treated as in (B), and its activity determined in an in vitro kinase assay in the presence or absence of the Chk1 inhibitor, UCN-01 (1 μM), using purified GST-Cdc25A as a substrate.
# (§2) Immunochemical techniques: Antibodies used in this study: Mouse monoclonal antibodies against human Cdc25A (DCS-122, DCS-124) and F-6 (Santa Cruz), Cdc25B (DCS-162, DCS-164) and Cdc25C (DCS-193) full length proteins fused to GST were generated by means of established hybridoma technology as described. Rabbit polyclonal antobody against Cdc25C (SC-327) were purchased from Santa Cruz. Antiserum against cdk2 Tyr15 was obtained from Calbiochem.
# Chk1/Cdc25A = Chk1/Cdc25A association (co-immunoprecipitation) in UV-irradiated U-2-OS cells transfected with HA-Cdc25A; format: cell-based, human; conditions: caffeine 10 mM, 1 hour preincubation before UV (15 J/m^2), lysed 2 hours later
# Procedure: as §1, §2
# [3] = system: tyrosine phosphatases including Cdc25
# Text: as §2
# [4] = UCN-01 at the time of UV irradiation (15 J/m^2), U-2-OS
molecule,measurement,setting,value
CCCC[C@@H](C=O)NC(=O)[C@H](CC(C)C)NC(=O)[C@H](CC(C)C)NC(C)=O [LLnL] (Ac-Leu-Leu-[Nle]-aldehyde),UV-induced reduction of Cdc25A protein level,"Cdc25A [1]; LLnL 25 μg/ml added immediately after UV (15 J/m^2), U-2-OS (endogenous) and U-2-OS/B3C4 (ectopic Cdc25A), lysates 1 hour after UV",entirely prevented
same,UV-induced reduction of Cdc25A phosphatase activity,"Cdc25A [2]; LLnL 25 μg/ml added immediately after UV (15 J/m^2), endogenous and ectopic Cdc25A, 1 hour after UV",entirely prevented
CN[C@@H]1C[C@H]2O[C@@](C)([C@@H]1OC)n1c3ccccc3c3c4c(c5c6ccccc6n2c5c31)C(=O)N[C@@H]4O [UCN-01],UV-induced degradation of the endogenous Cdc25A protein,Cdc25A [1]; [4],completely abolished; also recorded: prevented
same,basal and UV-induced Chk1 kinase activities towards GST-Cdc25A,Chk1,completely inhibited
same,Cdc25A-associated phosphatase activity after UV,Cdc25A [2]; [4],allowed maintenance of high
Cn1c(=O)c2c(ncn2C)n(C)c1=O [caffeine],half-life of the Cdc25A protein after UV,"Cdc25A [1]; caffeine prior to UV irradiation, compared to non-irradiated cells",restored
same,UV-induced increase in Chk1/Cdc25A association,Chk1/Cdc25A,quantitatively prevented
sodium vanadate,ability of mock-treated cell lysates to dephosphorylate and superactivate cyclin E/cdk2,[3],completely prevented
